Results reported in article PMC4735555, “Crystal structure of the N-myristoylated lipopeptide-bound MHC class I complex” (Nature Communications, 2016).

Tests used:
[1] = tested on: 2N5.1 TCR; assay: SPR binding of soluble 2N5.1 TCR to peptide-loaded Mamu-A*02; set-up: species or system rhesus macaque; conditions: in words; Biacore 3000, 30 °C; soluble 2N5.1 TCR αβ dimer; YY9 peptide-loaded Mamu-A*02 immobilized; pH 7.5
Source text: (§1) Single-chain MHC proteins in which β2m was linked via a Gly-Ser linker (GGGGSGGSGSGGGSS) to the ectodomain of either Mamu-B*098 or Mamu-A*02, followed by a biotinylation sequence peptide (LHHILDAQKMVWNHR), were also expressed in E. coli and were purified in a similar manner to the trimer complex of Mamu-B*098, β2m and C14nef5. The β2m-linked Mamu-B*098 protein was refolded without C14nef5, whereas the β2m-linked Mamu-A*02 protein was refolded in the presence of the YY9 peptide (YTSGPGIRY). These recombinant proteins (3 mg) were biotinylated by being incubated for 12 h at 20 °C with 2 μg of BirA enzyme (Sigma-Aldrich, St Louis, MO) in a biotinylation buffer containing 100 mM Tris-HCl pH 8.0, 5 mM MgCl2, 4.5 mM ATP and 4 mM D-biotin, and were purified by size-exclusion chromatography.
TCR dimers were generated by the disulfide-linked TCR method. […]
The binding of ligands to MHC class I molecules was analysed using the Octet RED96 system equipped with a streptavidin-conjugated biosensor (Pall ForteBio, Menlo Park, CA) according to the manufacturer's instructions. […] After reference subtraction, binding signals were analysed using the BIAevaluation 3.1 software. […]

[2] = tested on: 2N5.1 (plate-coated Mamu-B*098); assay: T-cell assay with plate-coated Mamu-B*098, IFN-γ release by 2N5.1; format: cell-based, rhesus macaque; conditions: 10 μg MHC protein, 1 μg lipopeptide loaded overnight 37 °C; 5 × 10^4 T cells per well, 24 h; IFN-γ ELISA
Source text: as §1
Streptavidin-coated 96-well plates (Thermo Scientific, Hudson, NH) were overlaid with 10 μg of the biotinylated β2m-linked Mamu-B*098 and Mamu-A*02 proteins, and lipopeptide Ags (1 μg) were loaded by an overnight incubation at 37 °C. The wells were then washed extensively and T cells (5 × 10^4 per well) were added. After a 24-h incubation at 37 °C, aliquots of the culture supernatants were collected and the amount of IFN-γ released into the medium was measured by a human/monkey IFN-γ enzyme-linked immunosorbent assay kit (Mabtech, Nacka Strand, Sweden).

[3] = tested on: Mamu-B*098; assay: Biolayer interferometry binding to β2m-linked Mamu-B*098; set-up: species or system rhesus macaque; conditions: Octet RED96; biotinylated β2m-linked Mamu-B*098; lipopeptide 10 μM, 45 min, then 30 min without; 20 mM Tris-HCl pH 7.5, 150 mM NaCl, 2% DMSO; 30 °C; representative of three independent experiments
Source text: as §1
The binding of ligands to MHC class I molecules was analysed using the Octet RED96 system equipped with a streptavidin-conjugated biosensor (Pall ForteBio, Menlo Park, CA) according to the manufacturer's instructions. Biotinylated β2m-linked Mamu-B*098 and Mamu-A*02 proteins were immobilized on the sensor tip surface with a signal magnitude of ∼5.0 nm. […] After reference subtraction, binding signals were analysed using the BIAevaluation 3.1 software. […]

| Substance | interaction of 2N5.1 TCR with peptide-loaded Mamu-A*02 (SPR) [1] | IFN-γ response of 2N5.1 to plate-coated Mamu-B*098 with lipopeptide Ag [2] | physical interaction with immobilized Mamu-B*098 (biolayer interferometry) [3] |
| --- | --- | --- | --- |
| YTSGPGIRY [YY9, YY9 peptide (…)] | no interaction was detected |  |  |
| C14-GGAAS |  | failed to stimulate 2N5.1 even in the presence of Mamu-B*098 | bound to B*098 |
